The target of this experiment is T1, FPR2 (Homo sapiens, UniProt P25090).
T1 construct: expressed in transfected cells
T1 sequence (P25090 1-351): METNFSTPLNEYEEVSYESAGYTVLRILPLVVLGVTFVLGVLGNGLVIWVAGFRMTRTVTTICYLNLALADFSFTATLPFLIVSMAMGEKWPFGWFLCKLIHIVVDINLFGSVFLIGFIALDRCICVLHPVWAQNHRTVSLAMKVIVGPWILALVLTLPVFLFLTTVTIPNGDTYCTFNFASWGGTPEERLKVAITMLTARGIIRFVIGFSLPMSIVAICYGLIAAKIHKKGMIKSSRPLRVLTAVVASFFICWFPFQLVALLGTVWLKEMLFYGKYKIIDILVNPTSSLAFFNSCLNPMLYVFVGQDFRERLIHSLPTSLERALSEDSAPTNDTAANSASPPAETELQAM
Briefly: Compound-induced calcium activity on FLIPR Tetra in CHO-Gα16 cells stably expressing FPRL1. The format is cell-based. To be noted: for FPR2 Ga16-CHO (Rel. eff.): relative efficacy; for EC50: tested at 0.61 to 10,000 nM, read-out: FPR2 Ga16-CHO EC50. The procedure: CHO-Gα16 cells stably expressing FPRL1 were cultured in (F12, 10% FBS, 1% PSA, 400 μg/ml geneticin and 50 μg/ml hygromycin) and HEK-Gqi5 cells stable expressing FPR1 were cultured in (DMEM high glucose, 10% FBS, 1% PSA, 400 μg/ml geneticin and 50 μg/ml hygromycin). In general, the day before the experiment, 18,000 cells/well were plated in a 384-well clear bottom poly-d-lysine coated plate. The following day the screening compound-induced calcium activity was assayed on the FLIPR^Tetra. The drug plates were prepared in 384-well microplates using the EP3 and the MultiPROBE robotic liquid handling systems. Compounds were tested at concentrations ranging from 0.61 to 10,000 nM. Results are expressed as EC50 (nM) and efficacy values.

In the case of `O=C(O)CCc1ccccc1NC(=O)Nc1ccc(Br)cc1` [Compound 1, 3-(2-{[(4-Bromophenyl)carbamoyl]amino}phenyl)propanoic Acid], the “FPR2 Ga16-CHO (Rel. eff.)” value was “(1.00)” and the EC50 was found to be 1230 nM.

Regarding `COC(=O)CCCNC(=O)CCc1ccccc1NC(=O)Nc1ccc(Br)cc1` [Compound 2, Methyl 4-{[3-(2-{[(4-Bromophenyl)carbamoyl]amino}phenyl)propanoyl]amino}butanoate], the “FPR2 Ga16-CHO (Rel. eff.)” value is listed as “(0.96)” and the EC50 turned out to be 922 nM.

Turning to `COC(=O)CCNC(=O)CCc1ccccc1NC(=O)Nc1ccc(Br)cc1` [Compound 3, Methyl3-{[3-(2-{[(4-bromophenyl)carbamoyl]amino}phenyl)propanoyl]amino}propanoate], the “FPR2 Ga16-CHO (Rel. eff.)” value was “(1.00)” and the EC50 turned out to be 311 nM.

`O=C(O)CCCNC(=O)CCc1ccccc1NC(=O)Nc1ccc(Br)cc1` [Compound 4, 4-{[3-(2-{[(4-Bromophenyl)carbamoyl]amino}phenyl)propanoyl]amino}butanoic Acid]: the “FPR2 Ga16-CHO (Rel. eff.)” value is “(0.99)” and the EC50 worked out at 2040 nM.

`O=C(O)CCNC(=O)CCc1ccccc1NC(=O)Nc1ccc(Br)cc1` [Compound 5, 3-{[3-(2-{[(4-Bromophenyl)carbamoyl]amino}phenyl)propanoyl]amino}propanoic acid]: the “FPR2 Ga16-CHO (Rel. eff.)” value was “(1.00)” and the EC50 came to 637 nM.

`COC(=O)CNC(=O)CCc1ccccc1NC(=O)Nc1ccc(Br)cc1` [Compound 6, Methyl {[3-(2-{[(4-bromophenyl)carbamoyl]amino}phenyl)propanoyl]amino}acetate]: the “FPR2 Ga16-CHO (Rel. eff.)” value is reported as “(0.80)” and the EC50 worked out at 180 nM.

Regarding `O=C(O)CNC(=O)CCc1ccccc1NC(=O)Nc1ccc(Br)cc1` [Compound 7, {[3-(2-{[(4-Bromophenyl)carbamoyl]amino}phenyl)propanoyl]amino}acetic acid], the “FPR2 Ga16-CHO (Rel. eff.)” value is recorded as “(0.76)” and the EC50 worked out at 410 nM.

The term EC50 denotes the concentration needed to bring the measured effect to its halfway point.

The record behind these values is patent US20150080466A1, “DIPHENYL UREA DERIVATIVES AS FORMYL PEPTIDE RECEPTOR MODULATORS” (Allergan, Inc., priority 2013, published 2015).
